Reference: PubChem BioAssay (NCI)
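Assay format: 96-well plates, 48-hour exposure. GI50 marks 50% less growth. TGI: concentration producing complete growth inhibition.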

Experiments:
Experiment in all cases: NCI anticancer screen, dose series, 48 h
BT-549 breast = test system: BT-549 breast
SK-MEL-5 melanoma = test system: SK-MEL-5 melanoma
SN12C renal = test system: SN12C renal
TK-10 renal = test system: TK-10 renal
UO-31 renal = test system: UO-31 renal
HOP-92 NSCLC = test system: HOP-92 NSCLC
SK-OV-3 ovarian = test system: SK-OV-3 ovarian
NCI-H23 lung = test system: NCI-H23 lung
SR leukemia = test system: SR leukemia
PC-3 prostate = test system: PC-3 prostate

**Q.** What does the source list for `CCN(CC)CCCCNc1ncc2cc(-c3cc(OC)cc(OC)c3)c(NC(=O)NC(C)(C)C)nc2n1`?
**A.** GI50 (BT-549 breast): 2.15 µM; TGI (BT-549 breast): 18 µM; GI50 (SK-MEL-5 melanoma): 6.19 µM; TGI (SK-MEL-5 melanoma): 18 µM; GI50 (SN12C renal): 3.52 µM; TGI (SN12C renal): 15.6 µM; GI50 (TK-10 renal): 6.77 µM; TGI (TK-10 renal): 21.1 µM; GI50 (UO-31 renal): 1.37 µM; TGI (UO-31 renal): 15.5 µM; GI50 (HOP-92 NSCLC): 2.11 µM; TGI (HOP-92 NSCLC): 18.4 µM; GI50 (SK-OV-3 ovarian): 4.91 µM; TGI (SK-OV-3 ovarian): 18.2 µM; GI50 (NCI-H23 lung): 11.1 µM; TGI (NCI-H23 lung): 30.1 µM; GI50 (SR leukemia): 2.11 µM; TGI (SR leukemia): 5.68 µM; GI50 (PC-3 prostate): 7.3 µM; TGI (PC-3 prostate): 26 µM
